This assay deals with T1, human TLR8 (Homo sapiens, UniProt Q9NR97).
T1 sequence (Q9NR97 27-1041): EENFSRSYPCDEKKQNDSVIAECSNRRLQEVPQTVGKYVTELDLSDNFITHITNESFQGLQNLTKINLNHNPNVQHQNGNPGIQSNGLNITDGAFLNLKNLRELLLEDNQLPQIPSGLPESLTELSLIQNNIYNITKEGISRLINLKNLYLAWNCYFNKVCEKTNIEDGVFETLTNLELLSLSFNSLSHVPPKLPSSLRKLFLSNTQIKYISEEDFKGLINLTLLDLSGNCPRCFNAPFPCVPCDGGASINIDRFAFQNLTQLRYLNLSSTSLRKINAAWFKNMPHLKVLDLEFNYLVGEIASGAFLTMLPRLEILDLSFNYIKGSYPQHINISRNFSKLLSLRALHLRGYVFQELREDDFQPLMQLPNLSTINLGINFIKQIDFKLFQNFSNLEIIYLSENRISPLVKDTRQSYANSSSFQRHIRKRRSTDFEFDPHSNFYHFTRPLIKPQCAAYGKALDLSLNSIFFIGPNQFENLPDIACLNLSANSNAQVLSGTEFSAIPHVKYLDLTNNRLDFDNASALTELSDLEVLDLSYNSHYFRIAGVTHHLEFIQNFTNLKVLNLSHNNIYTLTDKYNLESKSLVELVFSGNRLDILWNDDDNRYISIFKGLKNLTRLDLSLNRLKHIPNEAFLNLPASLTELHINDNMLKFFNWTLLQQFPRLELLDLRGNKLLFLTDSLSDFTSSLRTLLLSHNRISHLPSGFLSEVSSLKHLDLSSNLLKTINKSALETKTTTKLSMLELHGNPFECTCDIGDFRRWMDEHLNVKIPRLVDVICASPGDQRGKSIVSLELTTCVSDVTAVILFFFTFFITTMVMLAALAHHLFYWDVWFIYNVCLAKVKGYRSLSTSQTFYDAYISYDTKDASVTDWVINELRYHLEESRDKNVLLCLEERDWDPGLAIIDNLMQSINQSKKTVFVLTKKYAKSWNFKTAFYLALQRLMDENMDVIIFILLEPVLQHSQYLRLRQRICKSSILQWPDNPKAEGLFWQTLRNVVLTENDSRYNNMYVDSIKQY
The assay is described as follows: HEK293-Blue-hTLR-8 cells assay. The format is cell-based. Particulars: HEK293-Blue-hTLR8 cells, R848 stimulation, 20 hrs, SEAP reporter; read-out: HEK/hTLR8 IC50. The text has this: HEK293-Blue-hTLR-8 Cells Assay:
A stable HEK293-Blue-hTLR-8 cell line was purchased from InvivoGen (Cat. #: hkb-htlr8, San Diego, California, USA). These cells were originally designed for studying the stimulation of human TLR8 by monitoring the activation of NF-κB. A SEAP (secreted embryonic alkaline phosphatase) reporter gene was placed under the control of the IFN-β minimal promoter fused to five NF-κB and AP-1-binding sites. The SEAP was induced by activating NF-κB and AP-1 via stimulating HEK-Blue hTLR8 cells with TLR8 ligands. Therefore the reporter expression was declined by TLR8 antagonist under the stimulation of a ligand, such as R848, for incubation of 20 hrs. The cell culture supernatant SEAP reporter activity was determined using QUANTI-Blue™kit (Cat. #: rep-qb1, Invivogen, San Diego, Ca, USA) at a wavelength of 640 nm, a detection medium that turns purple or blue in the presence of alkaline phosphatase.
HEK293-Blue-hTLR8 cells were incubated at a density of 250,000-450,000 cells/mL in a volume of 170 μL in a 96-well plate in Dulbecco's Modified Eagle's medium (DMEM) containing 4.5 g/L glucose, 50 U/mL penicillin, […], […], 2 mM L-glutamine, 10% (v/v) heat-inactivated fetal bovine serum with addition of 20 μL test compound 1n a serial dilution in the presence of final DMSO at 1% and 10 μL of 60 uM R848 in above DMEM, perform incubation under 37° C. in a CO2 incubator for 20 hrs. Then 20 μL of the supernatant from each well was incubated with 180 μL Quanti-blue substrate solution at 37° C. for 2 hrs and the absorbance was read at 620-655 nm using a spectrophotometer. The signaling pathway that TLR8 activation leads to downstream NF-κB activation has been widely accepted, and therefore similar reporter assay was modified for evaluating TLR8 antagonist.

Regarding `C[C@@H]1CN(c2ccc(C#N)c3ncccc23)C[C@@H]2c3ccc(N4CCOC5(CNC5)C4)cc3CN12` [Example 24, 5-[(4R,10bS)-4-methyl-8-(5-oxa-2,8-diazaspiro[3.5]nonan-8-yl)-3,4,6,10b-tetrahydro-1H-pyrazino[2,1-a]isoindol-2-yl]quinoline-8-carbonitrile], the IC50 was less than 3.2 nM.

Consider `C[C@@H]1CN(c2ccc(C#N)c3ncccc23)C[C@@H]2c3ccc(C4CCNCC4)cc3CN12` [Example 9, 5-[(4R,10bS)-4-methyl-8-(4-piperidyl)-3,4,6,10b-tetrahydro-1H-pyrazino[2,1-a]isoindol-2-yl]quinoline-8-carbonitrile], for which the IC50 is less than 3.2 nM.

`C[C@@H]1CN(c2ccc(C#N)c3ncsc23)C[C@@H]2c3ccc(N4CCNCC4)cc3CN12` [Example 6, 7-[(4R,10bS)-4-methyl-8-piperazin-1-yl-3,4,6,10b-tetrahydro-1H-pyrazino[2,1-a]isoindol-2-yl]-1,3-benzothiazole-4-carbonitrile]: the IC50 was less than 3.2 nM.

Take `C[C@@H]1CN(c2ccc3c(c2)CN2[C@H](C)CN(c4ccc(C#N)n5nccc45)C[C@H]32)CCN1` [Example 97, 4-[(4R,10bS)-4-methyl-8-[(3R)-3-methylpiperazin-1-yl]-3,4,6,10b-tetrahydro-1H-pyrazino[2,1-a]isoindol-2-yl]pyrazolo[1,5-a]pyridine-7-carbonitrile]: the IC50 came to 1 nM.

Turning to `CO[C@H]1CN(c2ccc3c(c2)CN2[C@H](C)CN(c4ccc(C#N)n5nccc45)C[C@H]32)C[C@@H]1N` [Example 95, 4-[(4R,10bS)-8-[(3S,4S)-3-amino-4-methoxy-pyrrolidin-1-yl]-4-methyl-3,4,6,10b-tetrahydro-1H-pyrazino[2,1-a]isoindol-2-yl]pyrazolo[1,5-a]pyridine-7-carbonitrile], the IC50 amounted to 4.6 nM.

Regarding `C[C@@H]1CN(c2ccc(C#N)c3ncccc23)C[C@@H]2c3ccc(N[C@@H]4CNC[C@H]4F)cc3CN12` [Example 33, 5-[(4R,10bS)-8-[[(3R,4R)-4-fluoropyrrolidin-3-yl]amino]-4-methyl-3,4,6,10b-tetrahydro-1H-pyrazino[2,1-a]isoindol-2-yl]quinoline-8-carbonitrile], the IC50 is less than 3.2 nM.

`C[C@@H]1CN(c2ccc(C#N)c3ncccc23)C[C@@H]2c3cccc(N4CCNCC4)c3CN12` [Example 8, 5-[(4R,10bS)-4-methyl-7-piperazin-1-yl-3,4,6,10b-tetrahydro-1H-pyrazino[2,1-a]isoindol-2-yl]quinoline-8-carbonitrile]: the IC50 was less than 3.2 nM.

Take `C[C@@H]1CN(c2ccc(C#N)c3ncccc23)C[C@@H]2c3ccc(N4CC[C@@H](N)C4)cc3CN12` [Example 20, 5-[(4R,10bS)-8-[(3R)-3-aminopyrrolidin-1-yl]-4-methyl-3,4,6,10b-tetrahydro-1H-pyrazino[2,1-a]isoindol-2-yl]quinoline-8-carbonitrile]: the IC50 was less than 3.2 nM.

On to `C[C@@H]1CN(c2ccc(C#N)c3ncccc23)C[C@@H]2c3ccc(N4CC(N)C5(COC5)C4)cc3CN12` (stereo partly drawn) [Example 18, 5-[(4R,10bS)-8-(5-amino-2-oxa-7-azaspiro[3.4]octan-7-yl)-4-methyl-3,4,6,10b-tetrahydro-1H-pyrazino[2,1-a]isoindol-2-yl]quinoline-8-carbonitrile], for which the IC50 was less than 3.2 nM.

On to `CO[C@H]1CN(c2ccc3c(c2)CN2C3CN(c3ccc(C#N)c4ncccc34)C[C@H]2C)C[C@@H]1N` (single isomer, unassigned) [Example 16A], for which the IC50 is less than 3.2 nM.

`C[C@@H]1CN(c2ccc(C#N)c3ncccc23)C[C@@H]2c3ccc(N4C[C@@H](F)[C@@H](N)C4)cc3CN12` [Example 46, 5-[(4R,10bS)-8-[(3S,4R)-3-amino-4-fluoro-pyrrolidin-1-yl]-4-methyl-3,4,6,10b-tetrahydro-1H-pyrazino[2,1-a]isoindol-2-yl]quinoline-8-carbonitrile]: the IC50 amounted to 0.4 nM.

Take `C[C@@H]1CN(c2ccc(C#N)c3ncccc23)C[C@@H]2c3ccc(N4C[C@H](N)[C@@H](O)C4)cc3CN12` [Example 40A, 5-[(4R,10bS)-8-[(3S,4S)-3-amino-4-hydroxy-pyrrolidin-1-yl]-4-methyl-3,4,6,10b-tetrahydro-1H-pyrazino[2,1-a]isoindol-2-yl]quinoline-8-carbonitrile]: the IC50 was 1.4 nM.

Consider `C[C@@H]1CN(c2ccc(C#N)c3ncccc23)C[C@@H]2c3ccc(N[C@H]4CNC[C@H]4F)cc3CN12` [Example 30, 5-[(4R,10bS)-8-[[(3S,4R)-4-fluoropyrrolidin-3-yl]amino]-4-methyl-3,4,6,10b-tetrahydro-1H-pyrazino[2,1-a]isoindol-2-yl]quinoline-8-carbonitrile], for which the IC50 was less than 3.2 nM.

For `C[C@@H]1CN(c2ccc(C#N)c3ncccc23)C[C@@H]2c3ccc(N4CCC(N)(CO)C4)cc3CN12` (stereo partly drawn) [Example 19, 5-[(4R,10bS)-8-[3-amino-3-(hydroxymethyl)pyrrolidin-1-yl]-4-methyl-3,4,6,10b-tetrahydro-1H-pyrazino[2,1-a]isoindol-2-yl]quinoline-8-carbonitrile], the IC50 was less than 3.2 nM.

Turning to `CO[C@@H]1CN(c2ccc3c(c2)CN2C3CN(c3ccc(C#N)c4ncccc34)C[C@H]2C)C[C@@H]1N` (relative stereo) [Example 17, 5-[(4R,10bS)-8-[cis-3-amino-4-methoxy-pyrrolidin-1-yl]-4-methyl-3,4,6,10b-tetrahydro-1H-pyrazino[2,1-a]isoindol-2-yl]quinoline-8-carbonitrile], the IC50 is less than 3.2 nM.

Take `N#Cc1ccc(N2CCN3Cc4cc(N5CCNCC5)ccc4C3C2)c2scnc12` (centres unmarked) [Example 4, 7-(8-piperazin-1-yl-3,4,6,10b-tetrahydro-1H-pyrazino[2,1-a]isoindol-2-yl)-1,3-benzothiazole-4-carbonitrile]: the IC50 was less than 3.2 nM.

Take `C[C@@H]1CN(c2ccc(C#N)c3ncccc23)C[C@@H]2c3ccc(N4C[C@H](N)[C@@H](F)C4)cc3CN12` [Example 49, 5-[(4R,10bS)-8-[(3S,4S)-3-amino-4-fluoro-pyrrolidin-1-yl]-4-methyl-3,4,6,10b-tetrahydro-1H-pyrazino[2,1-a]isoindol-2-yl]quinoline-8-carbonitrile]: the IC50 is 0.6 nM.

As for `CN[C@H]1CN(c2ccc3c(c2)CN2[C@H](C)CN(c4ccc(C#N)c5ncccc45)C[C@H]32)C[C@@H]1OC` [Example 23, 5-[(4R,10bS)-8-[(3S,4S)-3-methoxy-4-(methylamino)pyrrolidin-1-yl]-4-methyl-3,4,6,10b-tetrahydro-1H-pyrazino[2,1-a]isoindol-2-yl]quinoline-8-carbonitrile], the IC50 is less than 3.2 nM.

As to `C[C@@H]1CN(c2ccc(C#N)n3nccc23)C[C@@H]2c3ccc(N4C[C@@H](N)[C@](C)(O)C4)cc3CN12` [Example 108, 4-[(4R,10bS)-8-[(3R,4R)-4-amino-3-hydroxy-3-methyl-pyrrolidin-1-yl]-4-methyl-3,4,6,10b-tetrahydro-1H-pyrazino[2,1-a]isoindol-2-yl]pyrazolo[1,5-a]pyridine-7-carbonitrile], the IC50 is 8.9 nM.

Regarding `CO[C@@H]1CNC[C@H]1Nc1ccc2c(c1)CN1[C@H](C)CN(c3ccc(C#N)c4ncccc34)C[C@H]21` [Example 34, 5-[(4R,10bS)-8-[[(3R,4R)-4-methoxypyrrolidin-3-yl]amino]-4-methyl-3,4,6,10b-tetrahydro-1H-pyrazino[2,1-a]isoindol-2-yl]quinoline-8-carbonitrile], the IC50 is less than 3.2 nM.

(Values after patent US12157746B2, “Tetrahydro-1H-pyrazino[2,1-a]isoindolylquinoline compounds for the treatment of autoimmune disease” (F. HOFFMANN-LA ROCHE AG, priority 2018, dated 2024).)
